# Key:
# [1] = target: T1, menin/MLL (terbium chelate-labeled menin, FITC-MBM1 peptide) (Homo sapiens, UniProt O00255, T541A); assay: Menin/MLL homogenous time-resolved fluorescence (HTRF) assay; type: binding; conditions: 30 min incubation
# T1 construct: Menin (a.a 1-610-6xhis tag, 2.3 mg/mL in 20 mM Hepes)
# T1 sequence (O00255 with tags, fused parts or gaps T541A): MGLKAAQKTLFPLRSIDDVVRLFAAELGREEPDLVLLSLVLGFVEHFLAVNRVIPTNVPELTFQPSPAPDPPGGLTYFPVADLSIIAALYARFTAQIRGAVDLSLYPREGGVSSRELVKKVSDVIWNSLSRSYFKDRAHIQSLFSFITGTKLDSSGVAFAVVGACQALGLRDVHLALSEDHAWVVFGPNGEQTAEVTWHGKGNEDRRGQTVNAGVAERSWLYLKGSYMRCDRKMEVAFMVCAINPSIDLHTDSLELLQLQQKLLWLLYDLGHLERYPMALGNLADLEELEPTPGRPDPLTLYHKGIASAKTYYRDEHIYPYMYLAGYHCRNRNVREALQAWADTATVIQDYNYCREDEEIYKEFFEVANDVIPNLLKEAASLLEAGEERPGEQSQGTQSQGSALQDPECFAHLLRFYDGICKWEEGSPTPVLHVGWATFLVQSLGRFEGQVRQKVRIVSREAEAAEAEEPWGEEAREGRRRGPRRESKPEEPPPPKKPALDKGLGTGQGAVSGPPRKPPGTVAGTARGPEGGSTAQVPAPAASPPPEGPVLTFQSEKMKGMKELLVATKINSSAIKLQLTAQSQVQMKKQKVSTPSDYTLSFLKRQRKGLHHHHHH
# Summary of the method: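 Terbium-labeled menin (a.a. 1-610, His-tagged; […]) pre-incubated 30 min with compound, then 75 nM FITC-MBM1 peptide added for 15 min at ambient temperature in Tris pH 7.5 buffer, 0.5% DMSO. HTRF 520/490 nm ratio read; IC50 from 11-point four-fold titrations, typically from 10 μM.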
# [2] = test system: MEIS1 mRNA expression; assay: MEIS1 mRNA expression assay (Quantigene Singleplex) in MOLM14 cells; type: cell-based, human; conditions: 48 hours incubation
# Summary of the method: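 MOLM14 cells, 3,750/well, exposed to increasing compound concentrations for 48 h. MEIS1 mRNA measured by QuantiGene Singleplex branched-DNA hybridization (lysis 45 min, hybridization 18–22 h, both 55 °C), normalized to RPL28. IC50 fitted to background-corrected fold change versus DMSO.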
SMILES,IC50 [1] [nM],"IC50 ([2]; Homo sapiens, MOLM-14, 48 h) [nM]",IC50 [2] [nM]
"Cc1cncc2c1c(C[C@@H]1CCN([C@@H](CCO)C3CCOCC3)C1)cn2-c1ccc(F)cc1C(=O)N(C)C(C)C (single isomer, unassigned) [Compound 253b]",1.73,> 1000,
"CC(=O)N1CCC(N2CC[C@H](Cc3cn(-c4ccc(F)cc4C(=O)N(C)C(C)C)c4cncc(C)c34)C2)C(C)C1 (single isomer, unassigned) [Compound 137b]",~0.34,,43
Cc1cncc2c1c(CC1CN(C3CCCNC(=O)C3)C1)cn2-c1ccc(F)cc1C(=O)N(C)C(C)C (centres unmarked) [Compound 290],0.393,170,
COC(=O)N1CCC(CN2CC[C@@H](Cc3cn(-c4ccc(F)cc4C(=O)N(CCO)C(C)C)c4cncc(C)c34)C2)CC1 [Compound 334],0.224,12,
"CN=S(=O)(c1cc(F)ccc1-n1cc(CC2CCN(CC3CCOCC3)C2)c2c(C)cncc21)C(C)C (single isomer, unassigned) [Compound 77c]",0.546,,669
"Cc1cncc2c1c(C[C@@H]1CCN(C[C@@H]3CCCCO3)C1)cn2-c1ccc(F)cc1C(=O)N(C)C(C)C (single isomer, unassigned) [Compound 147b]",0.073,~105,
"COC[C@@H](C1CCCCO1)N1CC[C@@H](Cc2cn(-c3ccc(F)cc3C(=O)N(C)C(C)C)c3cncc(C)c23)C1 (single isomer, unassigned) [Compound 165a]",0.173,~180,
COCC1CCCN1C(=O)c1cc(F)ccc1-n1cc(CC2CN(CC3CCOCC3)C2)c2c(C)cncc21 (centres unmarked) [Compound 267],0.24,166,
"Cc1cncc2c1c(CC1CCN(C[C@@H]3CNC(=O)C3)CC1)cn2-c1ccc(F)cc1C(=O)N(C)C(C)C (single isomer, unassigned) [Compound 186b]",0.932,504,
CC(=O)N1CCC(CN2CCC(Cc3cn(-c4ccc(F)cc4C(=O)N(C)C(C)C)c4cncc(C)c34)C2C)CC1 (centres unmarked) [Compound 226],0.255,,269
CC(=O)N1C[C@@H]2CN([C@H]3C[C@@H](C(C(C)C)N4CC[C@@H](Cc5cn(-c6ccc(F)cc6C(=O)N(C)C(C)C)c6cncc(C)c56)C4)C3)C[C@H]2C1 (mixture of isomers) [Compound 20],~0.19,< 1.7,
"CC(=O)N1CCC(N2CC(Cc3cn(-c4ccc(F)cc4C(=O)N(C)C(C)C)c4cncc(C)c34)C2)C[C@@H]1C (single isomer, unassigned) [Compound 293b]",0.152,,259
CNC(=O)[C@H]1CC[C@@H](CN2CC[C@H](Cc3cn(-c4ccc(F)cc4C(=O)N(C)C(C)C)c4cncc(C)c34)C2)CC1 [Compound 236],0.086,~98.9,
CC(=O)N1CCC(CN2CC[C@@H](Cc3cn(-c4ccc(F)cc4C(=O)NC(C)C)c4cncc(C)c34)C2)CC1 [Compound 238],1.94,> 1000,
"Cc1cncc2c1c(C[C@H]1CCN(CC3CCS(=O)(=O)CC3)C1)cn2-c1ccc(F)cc1C(=O)N(C)C(C)C (single isomer, unassigned) [Compound 124]",0.156,114,
CC(=O)N1CC(CN2CCC(Cc3cn(-c4ccc(F)cc4C(=O)N(C)C(C)C)c4cncc(C)c34)CC2)C1 [Compound 102],3.02,> 1000,
Cc1cncc2c1c(C[C@@H]1CCN(CC3CCCCC3)C1)cn2-c1ccc(F)cc1C(=O)N(C)C(C)C [Compound 193],0.071,41,
"Cc1cncc2c1c(CC1CNC(CC3CCOCC3)C1)cn2-c1ccc(F)cc1C(=O)N(C)C(C)C (single isomer, unassigned) [Compound 134a]",0.032,,86
"CC(=O)N1CCC(CN2CC[C@@H](Cc3cn(-c4ccc(F)cc4[S@@]4(=O)=NCCC4)c4cncc(C)c34)C2)CC1 (single isomer, unassigned) [Compound 214a]",1.29,~605,

SMILES,IC50 [1] [nM],"IC50 ([2]; Homo sapiens, MOLM-14, 48 h) [nM]",IC50 [2] [nM]
"CC(=O)N1CCC(N2CC(Cc3cn(-c4ccc(F)cc4C(=O)N(C)C(C)C)c4cncc(C)c34)C2)C[C@H]1C (single isomer, unassigned) [Compound 292b]",0.562,~586,
CCN(C(=O)c1cc(F)ccc1-n1cc(CC2CN(C(C(C)C)[C@H]3C[C@H](N4CCN(C(C)=O)CC4)C3)C2)c2c(C)cncc21)C(C)C (some centres unmarked) [Compound 35b],0.077,47,
CC(=O)N1CC2CC(CN3CC(Cc4cn(-c5ccc(F)cc5C(=O)N(C)C(C)C)c5cncc(C)c45)C3)CC(C2)C1 (centres unmarked) [Compound 300],0.116,55,
Cc1cncc2c1c(CC1CCN(C[C@H]3CCC(=O)N3)CC1)cn2-c1ccc(F)cc1C(=O)N(C)C(C)C [Compound 110],1.8,~1070,
Cc1cncc2c1c(C[C@@H]1CCN(CC3CCN(C(=O)C(C)(C)O)CC3)C1)cn2-c1ccc(F)cc1C(=O)N1CCC2CC21 (some centres unmarked) [Compound 341],0.037,20,
Cc1cncc2c1c(C[C@@H]1CCN(CC3CCN(C(=O)C(C)(C)O)CC3)C1)cn2-c1ccc(F)cc1C(=O)N1[C@H](C)CC[C@@H]1C [Compound 344],~0.058,14,
Cc1cncc2c1c(CC1CN(CC3CCOCC3)C1)cn2-c1ccc(F)cc1C(=O)N(CCO)C1CC1 [Compound 278],0.323,342,
CNC(=O)C1CC(CN2CCC(Cc3cn(-c4ccc(F)cc4C(=O)N(C)C(C)C)c4cncc(C)c34)CC2)C1 (centres unmarked) [Compound 129],0.291,277,
CCC([C@H]1C[C@@H](N2C[C@H]3CN(C(C)=O)C[C@@H]3C2)C1)N1CC[C@H](Cc2cn(-c3ccc(F)cc3C(=O)N(C)C(C)C)c3cncc(C)c23)C1 (mixture of isomers) [Compound 23],0.07,7,
"Cc1cncc2c1c(C[C@H]1CCN([C@@H](C)C3CCOCC3)C1)cn2-c1ccc(F)cc1[S@@](=N)(=O)C(C)C (single isomer, unassigned) [Compound 183b]",2.61,~2040,
"Cc1cncc2c1c(CC1CCN(CC3CNC(=O)C3)CC1)cn2-c1ccc(F)cc1C(=O)N(C)C(C)C (single isomer, unassigned) [Compound 186a]",0.447,419,
CC(=O)N1C[C@@H]2CN(CCCC(C(C)C)N3CC[C@@H](Cc4cn(-c5ccc(F)cc5C(=O)N(C)C(C)C)c5cncc(C)c45)C3)C[C@H]2C1 (mixture of isomers) [Compound 12],0.018,5,
CCNC(=O)[C@H]1CC[C@H](CN2CC(Cc3cn(-c4ccc(F)cc4C(=O)N(C)C(C)C)c4cncc(C)c34)C2)CC1 [Compound 143],0.064,5,
"Cc1cncc2c1c(C[C@H]1CCN(CC3CCOCC3)C1)cn2-c1ccc(F)cc1[S@@](=N)(=O)C(C)C (single isomer, unassigned) [Compound 78d]",0.875,538,
CC(=O)N[C@H]1CC[C@H](CN2CC(Cc3cn(-c4ccc(F)cc4C(=O)N(C)C(C)C)c4cncc(C)c34)C2)CC1 [Compound 118],0.139,117,
Cc1noc(CN2CC(Cc3cn(-c4ccc(F)cc4C(=O)N(C)C(C)C)c4cncc(C)c34)C2)n1 [Compound 308],60.2,> 1000,
CCC1CCCN1C(=O)c1cc(F)ccc1-n1cc(C[C@@H]2CCN(CC3CCN(C(=O)C(C)(C)O)CC3)C2)c2c(C)cncc21 (some centres unmarked) [Compound 342],0.188,107,
CC(=O)N1CCC(CN2CCC[C@@H](Cc3cn(-c4ccc(F)cc4C(=O)N(C)C(C)C)c4cncc(C)c34)C2)CC1 [Compound 146],1.22,> 1000,

# From US20230250096A1, “SUBSTITUTED PHENYL-1H-PYRROLO[2,3-c] PYRIDINE DERIVATIVES” (Janssen Pharmaceutica NV, priority 2021, published 2023)
